From ChEMBL document CHEMBL1201862, “PubChem BioAssay data set” (2004)
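Exposure lasted 48 hours, with cells grown in 96-well plates and compounds tested at five concentrations. At the GI50, growth is halved.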 Active and inactive are the calls of the source. Cut-off read from the data, not from the text of the source: active = GI50 up to about 1.1 µM and inactive = higher.

Columns and labels:
Assay in all cases: DTP human tumour cell line panel, 48 h
LOX IMVI = tested on: LOX IMVI
SK-MEL-2 = tested on: SK-MEL-2
SF-539 = tested on: SF-539
Malme-3M = tested on: Malme-3M
SNB-75 = tested on: SNB-75
HL-60 = tested on: HL-60
EKVX = tested on: EKVX
NCI/ADR-RES = tested on: NCI/ADR-RES
SK-OV-3 = tested on: SK-OV-3
SR = tested on: SR
K562 = tested on: K562
HOP-62 = tested on: HOP-62
Hs-578T = tested on: Hs-578T
CCRF-CEM = tested on: CCRF-CEM
SF-295 = tested on: SF-295
CAKI-1 = tested on: CAKI-1
NCI-H460 = tested on: NCI-H460
A498 = tested on: A498
T47D = tested on: T47D
MDA-MB-231 = tested on: MDA-MB-231

| Compound | GI50 (LOX IMVI) | GI50 (SK-MEL-2) | GI50 (SF-539) | GI50 (Malme-3M) | GI50 (SNB-75) | GI50 (HL-60) | GI50 (EKVX) | GI50 (NCI/ADR-RES) | GI50 (SK-OV-3) | GI50 (SR) | GI50 (K562) | GI50 (HOP-62) | GI50 (Hs-578T) | GI50 (CCRF-CEM) | GI50 (SF-295) | GI50 (CAKI-1) | GI50 (NCI-H460) | GI50 (A498) | GI50 (T47D) | GI50 (MDA-MB-231) |
| --- | --- | --- | --- | --- | --- | --- | --- | --- | --- | --- | --- | --- | --- | --- | --- | --- | --- | --- | --- | --- |
| CCOC(=O)c1nc2c(nc1C(=O)OCC)C(=O)c1ccccc1C2=O | 0.353 µM (active) | 0.394 µM (active) | 0.473 µM (active) | 0.174 µM (active) | 0.479 µM (active) | 0.427 µM (active) | 1.38 µM (inactive) | 1.17 µM (inactive) | 1.59 µM (inactive) | 0.263 µM (active) | 0.348 µM (active) | 0.618 µM (active) | 0.236 µM (active) | 0.601 µM (active) | 0.359 µM (active) | 1 µM (active) | 1.59 µM (inactive) | 1.87 µM (inactive) | 3.85 µM (inactive) | 2.16 µM (inactive) |
| CCCCC1(N=[N+]=[N-])C(=O)C2C=CC=C3c4ccccc4N(C1=O)C32 (stereo not given) | 17.9 µM (inactive) | 11 µM (inactive) | 20 µM (inactive) | 23 µM (inactive) | 11.6 µM (inactive) | 34 µM (inactive) | 17.8 µM (inactive) | 17.7 µM (inactive) | 25.8 µM (inactive) | > 10 µM (inactive) | 17.3 µM (inactive) | 27.1 µM (inactive) | 12.3 µM (inactive) | 18.5 µM (inactive) | 24.7 µM (inactive) | 19.8 µM (inactive) | 17.2 µM (inactive) | > 10 µM (inactive) | 14.1 µM (inactive) | 23.6 µM (inactive) |
| CC(=O)NC1C(OCc2ccccc2)OC(CO)C(O)C1OCC(=O)N[C@@H](C)C(=O)N[C@H](CCC(=O)NCCCNc1ccc([N+](=O)[O-])c2[nH]c3ccccc3c(=O)c12)C(N)=O (stereo not given in full) | 52.6 µM (inactive) | > 100 µM (inactive) | 53.2 µM (inactive) | 27.5 µM (inactive) | 46.6 µM (inactive) | > 100 µM (inactive) | 43 µM (inactive) | > 100 µM (inactive) | > 100 µM (inactive) | > 100 µM (inactive) | > 100 µM (inactive) | 65 µM (inactive) | 26.2 µM (inactive) | > 100 µM (inactive) | 56.6 µM (inactive) | > 100 µM (inactive) | 46.1 µM (inactive) | > 100 µM (inactive) | > 100 µM (inactive) | > 100 µM (inactive) |
| COc1ccc(/C=C2\C=Cc3ccccc32)cc1OC | > 100 µM (inactive) | 72.1 µM (inactive) | > 100 µM (inactive) | > 100 µM (inactive) | 20.6 µM (inactive) | 10.9 µM (inactive) | 22.5 µM (inactive) | > 100 µM (inactive) | 76.2 µM (inactive) | 50.9 µM (inactive) | 29.8 µM (inactive) | > 100 µM (inactive) | 29.9 µM (inactive) | 57.1 µM (inactive) | > 100 µM (inactive) | > 100 µM (inactive) | > 100 µM (inactive) | 39.4 µM (inactive) | 47.3 µM (inactive) | 78.3 µM (inactive) |
| COc1ccc2oc(=O)c(-c3nc4ccccc4s3)cc2c1 | 17.8 µM (inactive) | > 100 µM (inactive) | 3.92 µM (inactive) | 8.61 µM (inactive) | 8.65 µM (inactive) | > 100 µM (inactive) | 19.2 µM (inactive) | 28.8 µM (inactive) | 13.6 µM (inactive) | 22 µM (inactive) | > 100 µM (inactive) | 14.2 µM (inactive) | 23.2 µM (inactive) | > 38.5 µM (inactive) | 21.5 µM (inactive) | 18.5 µM (inactive) | 16.6 µM (inactive) | 20.8 µM (inactive) | 20.6 µM (inactive) | 18.7 µM (inactive) |
